{"source": "patent US10421773B2", "about": "“Bone-selective osteogenic oxysterol bisphosphonate analogs” (The Regents of the University of California, priority 2014, dated 2019)", "key": {"[1]": {"experiment": "Half-life in human liver microsomes", "assay_type": "in vitro ADME", "conditions": "HLM"}, "[2]": {"test_system": "human primary mesenchymal stem cells", "conditions": "cited from earlier work"}, "spine fusion": {"test_system": "spine fusion", "conditions": "compared to other analogues; cited from earlier work"}, "bone disease models": {"test_system": "bone disease models", "conditions": "rabbit spine fusion and rabbit calvarial defect models; cited from earlier work"}, "[3]": {"experiment": "Hydroxyapatite (HAP) binding assay, NMR readout", "conditions": "in D2O, internal integration standard maleic acid, low HAP loading (FIG. 4C)", "procedure": "The bone binding properties of bisphosphonates are due to their affinity for calcium in hydroxyapatite (HAP). Relative HAP binding capacity can be measured by incubating a solution of an analyte with HAP and measuring the proportion of compound remaining in the supernatant. […] Reliable quantification of a range of analytes can be obtained by using an inverse-gated decoupling pulse sequence and sufficiently long relaxation delays (d1).\nThe HAP binding assay was carried out under the following conditions: 1 mL of 4 mM analyte in 50 mM tris buffer at pH 7.5 is incubated with HAP (or no HAP for control) by inversion for 15 minutes. […] The procedure is illustrated in FIG. 3A.\nThe binding strengths of the OXY133-ALN conjugates of the present invention relative to ALN were determined and any differences in binding affinity contributed by the degree (mono- vs. bis-ALN linked conjugates), position (C3-OH vs. C6-OH), and nature (succinate vs. glycinate) of the Oxy133-ALN conjugates noted. ALN was used as a positive control and benzyl phosphonic acid (BnP) as an established negative control. 600 mg of HAP was used for the “large HAP loading” condition (FIG. 4A) and 150 mg of HAP was used for the “low HAP loading” condition (FIG. 4B).\nExperimental conditions: 1 mL of 4 mM analyte in 50 mM tris buffer pH 7.5 is incubated with specified amount of HAP (or no HAP for control) by inversion for 15 min. […]"}, "[4]": {"test_system": "M2-10B4 osteoprogenitor cells", "experiment": "Osteogenic gene expression (ALP, BSP, OSX) in M2-10B4 cells", "assay_type": "cell-based", "conditions": "6 and 14 days of treatment, compared with untreated control cells and unconjugated OXY133, ranking within each linker series", "procedure": "(§1) Oxy133-ALN conjugates were tested in M2-10B4 osteoprogenitor cells to ascertain osteogenic activity and confirm their mechanism of action in inducing osteogenic differentiation. Alkaline phosphatase (ALP) activity, induction of the expression of osteogenic differentiation marker genes (ALP; bone sialoprotein (BSP); and osterix (OSX)), and ^45Ca incorporation as a measure of extracellular matrix mineralization were assayed by our previously reported protocols. The inventors have shown that these in vitro assays translate into in vivo stimulation of bone formation in a variety of animal models. The gene expression for ALP, BSP and OSX induced by the OXY133-ALN conjugates were measured after 6 and 14 days of treatment, the results after 6 days are shown in FIG. 1.\n(§2) The succinate-linked series (Oxy166, Oxy167, Oxy174) and the carbamate series (Oxy175, Oxy176, and Oxy177) were assayed as groups. […] It may be that OXY133 must be released from the OXY133-ALN conjugates in order to induce osteogenic gene expression. […] A quantitative ^45Ca mineralization assay was performed with analogues and unconjugated OXY133 over a 30-day incubation period in M2 cells as shown in FIG. 2."}, "[5]": {"test_system": "M2-10B4 osteoprogenitor cells", "experiment": "Alkaline phosphatase (ALP) activity induction", "assay_type": "cell-based", "conditions": "M2-10B4 cells; result mirrored the gene expression ranking", "procedure": "as §1, §2"}}, "data": [{"smiles": "CCCCCC[C@](C)(O)[C@H]1CC[C@H]2[C@@H]3C[C@H](O)[C@H]4C[C@@H](O)CC[C@]4(C)[C@H]3CC[C@@]21C", "note": "[OXY133]", "values": [{"measurement": "half-life", "setting": "[1]", "value": "< 5", "unit": "min"}, {"measurement": "osteogenesis in cultured human primary mesenchymal stem cells", "setting": "[2]", "value": "induce osteogenesis"}, {"measurement": "spine fusion in rats", "setting": "spine fusion", "value": "induce spine fusion in rats in an accelerated manner"}, {"measurement": "osteogenesis in non-rodent models of bone disease", "setting": "bone disease models", "value": "induce robust osteogenesis"}]}, {"smiles": "CCCCCC[C@](C)(O)[C@H]1CC[C@H]2[C@@H]3C[C@H](O)[C@H]4C[C@@H](OC(=O)NCC(=O)NCCCC(O)(P(=O)(O)O)P(=O)(O)O)CC[C@]4(C)[C@H]3CC[C@@]21C", "note": "[Oxy177]", "values": [{"measurement": "HAP binding affinity, 1H-NMR method", "setting": "[3]", "value": "binding affinity equivalent to the rest of the OXY-ALN series"}]}, {"smiles": "CCCCCC[C@](C)(O)[C@H]1CC[C@H]2[C@@H]3C[C@H](OC(=O)NCC(=O)NCCCC(O)(P(=O)(O)O)P(=O)(O)O)[C@H]4C[C@@H](O)CC[C@]4(C)[C@H]3CC[C@@]21C", "note": "[Oxy175]", "values": [{"measurement": "induction of osteogenic gene expression (ALP, BSP, OSX)", "setting": "[4]", "value": "most active"}, {"measurement": "ALP activity induction", "setting": "[5]", "value": "most active"}]}]}
